Experimental data: ChEMBL document CHEMBL5247604, “Discovery of novel hybrids containing clioquinol-1-benzyl-1,2,3,6-tetrahydropyridine as multi-target-directed ligands (MTDLs) against Alzheimer's disease” (Eur J Med Chem, 2022)
One block for each compound: values may come before it. Active and inactive are the calls of the source. The rule behind the calls is not given here.

Experiments:
Acetylcholinesterase = Acetylcholinesterase (Electrophorus electricus, UniProt O42275); test: Inhibition of electric eel AChE using acetylthiocholine iodide as substrate preincubated for 15 mins followed by substrate addition by Ellman's method
SH-SY5Y [1] = test: Antialzheimer activity in human SH-SY5Y cells assessed as inhibition of GA-induced tau hyperphosphorylation at Ser396 residue incubated for 24 hrs by ELISA; assay type: functional, cell-based
SH-SY5Y [2] = test: Antialzheimer activity in human SH-SY5Y cells assessed as inhibition of GA-induced tau hyperphosphorylation at Ser199 residue incubated for 24 hrs by ELISA; assay type: functional, cell-based
Mus musculus [3] = test: Antialzheimer activity in human oligo-merized amyloid beta (1 to 42 residues)-induced cognitive impairment C57BL/6 mouse model assessed as increase duration in novel arm at 5 mg/kg,ip qd for 10 days by Y-maze test relative to control; assay type: functional, organism-based; details: time 10.0 day
Mus musculus [4] = test: Antialzheimer activity in human oligo-merized amyloid beta (1 to 42 residues)-induced cognitive impairment C57BL/6 mouse model assessed as decrease TNF-alpha level in cortex at 5 mg/kg,ip qd for 10 days by ELISA; assay type: functional, organism-based; details: time 10.0 day
SH-SY5Y [5] = test: Antialzheimer activity in human SH-SY5Y cells assessed as inhibition of GA-induced tau hyperphosphorylation at Ser396 residue at 0.1 to 3 uM incubated for 24 hrs by ELISA; assay type: functional, cell-based; details: dose 0.1-3 µM
Mus musculus [6] = test: Antialzheimer activity in human oligo-merized amyloid beta (1 to 42 residues)-induced cognitive impairment C57BL/6 mouse model assessed as increase in percentage of time spent in the target quadrant at 5 mg/kg,ip qd for 10 days by Morris water maze test relative to control; assay type: functional, organism-based; details: time 10.0 day
Mus musculus [7] = test: Antialzheimer activity in human oligo-merized amyloid beta (1 to 42 residues)-induced cognitive impairment C57BL/6 mouse model assessed as decrease IL-1beta level in cortex at 5 mg/kg,ip qd for 10 days by ELISA; assay type: functional, organism-based; details: time 10.0 day
SH-SY5Y [8] = test: Neuroprotective activity in human SH-SY5Y cells assessed as inhibition of okadaic acid-induced mitochondrial membrane potential by measuring increase in red-to-green fluorescence intensity ratio pretreated for 24 hrs followed by okadaic acid addition for 24 hrs by JC-1 dye based fluorescence analysis; assay type: functional, cell-based
SH-SY5Y [9] = test: Antioxidant activity against okadaic acid-induced ROS generation in human SH-SY5Y cells assessed as reduction in DCF fluorescence intensity pretreated for 24 hrs followed by okadaic acid addition for 24 hrs by DCFH-DA dye based fluorescence analysis; assay type: functional, cell-based
Mus musculus [10] = test: Antialzheimer activity in human oligo-merized amyloid beta (1 to 42 residues)-induced cognitive impairment C57BL/6 mouse model assessed as decrease in escape latency at 5 mg/kg,ip qd for 10 days by Morris water maze test relative to control; assay type: functional, organism-based; details: time 10.0 day
SH-SY5Y [11] = test: Antialzheimer activity in human SH-SY5Y cells assessed as inhibition of GA-induced tau hyperphosphorylation at Ser199 residue at 0.1 to 3 uM incubated for 24 hrs by ELISA; assay type: functional, cell-based; details: dose 0.1-3 µM
in vivo = details: ICR, mouse, po
Description: Acute toxicity in ICR mouse assessed as lethality at 21.30 to 52 mg/kg, po and measured upto 14 days

SH-SY5Y [12] = test: Antioxidant activity against okadaic acid-induced ROS generation in human SH-SY5Y cells assessed as reduction in DCF fluorescence intensity at 1 to 10 uM pretreated for 24 hrs followed by okadaic acid addition for 24 hrs by DCFH-DA dye based fluorescence analysis; assay type: functional, cell-based; details: dose 1-10 µM
[13] = Metal chelating activity assessed as Fe3+-compound complex formation by measuring red shift in presence of FeCl3 at 40 uM incubated for 30 mins by UV-Visible spectrophotometry
[14] = Metal chelating activity assessed as Cu2+-compound complex formation by measuring red shift in presence of CuSO4 at 40 uM incubated for 30 mins by UV-Visible spectrophotometry
[15] = Metal chelating activity assessed as Fe2+-compound complex formation by measuring red shift in presence of FeSO4 at 40 uM incubated for 30 mins by UV-Visible spectrophotometry
[16] = Metal chelating activity assessed as Al3+-compound complex formation by measuring blue shift in presence of AlCl3 at 40 uM incubated for 30 mins by UV-Visible spectrophotometry
[17] = Metal chelating activity assessed as Zn2+-compound complex formation by measuring red shift in presence of ZnCl2 at 40 uM incubated for 30 mins by UV-Visible spectrophotometry
[18] = target: T1, Amyloid-beta precursor protein (Homo sapiens, UniProt P05067); test: Inhibition of Cu2+ induced amyloid beta (1 to 42 ) (unknown origin) aggregation incubated for 24 hr by Thioflavin T based fluorometric assay
[19] = target: T1, Amyloid-beta precursor protein; test: Inhibition of Cu2+ induced amyloid beta (1 to 42 ) (unknown origin) aggregation assessed as reduction in fibrils incubated for 24 hr by TEM analysis
[20] = target: T1, Amyloid-beta precursor protein; test: Inhibition of amyloid beta (1 to 42 ) (unknown origin) self aggregation incubated for 24 hr by Thioflavin T based fluorometric assay

Chain of Acetylcholinesterase (O42275 whole entry): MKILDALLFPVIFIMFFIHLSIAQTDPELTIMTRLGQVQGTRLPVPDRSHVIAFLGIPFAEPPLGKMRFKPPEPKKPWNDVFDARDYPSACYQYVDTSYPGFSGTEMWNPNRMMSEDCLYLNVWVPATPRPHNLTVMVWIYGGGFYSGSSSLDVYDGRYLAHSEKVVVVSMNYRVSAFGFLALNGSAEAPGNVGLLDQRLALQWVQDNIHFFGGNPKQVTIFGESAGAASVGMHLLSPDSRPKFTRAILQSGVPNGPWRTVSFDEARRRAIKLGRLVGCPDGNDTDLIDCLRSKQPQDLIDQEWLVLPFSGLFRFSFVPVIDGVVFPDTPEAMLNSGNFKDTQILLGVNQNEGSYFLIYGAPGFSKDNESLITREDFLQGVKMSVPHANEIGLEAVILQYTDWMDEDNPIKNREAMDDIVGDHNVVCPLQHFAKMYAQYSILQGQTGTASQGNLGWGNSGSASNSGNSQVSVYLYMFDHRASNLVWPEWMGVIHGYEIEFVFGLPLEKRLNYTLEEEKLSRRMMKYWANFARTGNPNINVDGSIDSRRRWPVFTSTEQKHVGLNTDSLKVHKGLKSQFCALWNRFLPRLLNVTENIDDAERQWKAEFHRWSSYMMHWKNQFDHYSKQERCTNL
T1 sequence (P05067 whole entry): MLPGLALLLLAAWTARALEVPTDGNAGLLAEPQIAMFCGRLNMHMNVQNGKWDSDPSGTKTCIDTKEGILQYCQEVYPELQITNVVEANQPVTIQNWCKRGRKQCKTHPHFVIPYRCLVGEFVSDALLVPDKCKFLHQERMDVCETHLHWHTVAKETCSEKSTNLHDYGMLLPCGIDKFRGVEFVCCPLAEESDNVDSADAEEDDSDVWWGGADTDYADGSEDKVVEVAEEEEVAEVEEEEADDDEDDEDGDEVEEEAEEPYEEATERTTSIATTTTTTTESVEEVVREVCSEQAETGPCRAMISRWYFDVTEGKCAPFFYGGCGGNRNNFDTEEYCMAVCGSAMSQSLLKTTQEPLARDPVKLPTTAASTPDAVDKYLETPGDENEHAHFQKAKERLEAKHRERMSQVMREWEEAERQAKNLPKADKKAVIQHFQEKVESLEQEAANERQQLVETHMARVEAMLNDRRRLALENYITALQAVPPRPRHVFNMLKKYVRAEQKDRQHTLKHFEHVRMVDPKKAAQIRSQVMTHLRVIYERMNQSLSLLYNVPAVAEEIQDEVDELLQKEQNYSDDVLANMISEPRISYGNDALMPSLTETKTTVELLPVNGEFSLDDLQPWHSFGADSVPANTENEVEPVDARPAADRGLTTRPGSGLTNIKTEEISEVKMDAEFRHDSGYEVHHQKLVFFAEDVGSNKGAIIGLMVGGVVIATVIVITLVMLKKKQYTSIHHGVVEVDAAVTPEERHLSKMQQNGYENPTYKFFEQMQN

SMILES: Oc1c(Cl)cc(Cl)c2ccc(/C=C/C3=CCN(Cc4ccccc4C(F)(F)F)CC3)nc12
IC50 (Acetylcholinesterase): 340 nM

SMILES: Oc1cccc2ccc(/C=C/C3=CCN(Cc4ccc(F)cc4)CC3)nc12
IC50 (Acetylcholinesterase): 1660 nM

SMILES: Oc1cccc2ccc(/C=C/C3=CCN(Cc4cccc(Cl)c4)CC3)nc12
IC50 (Acetylcholinesterase): 750 nM

SMILES: Cc1ccccc1CN1CC=C(/C=C/c2ccc3c(Cl)cc(Cl)c(O)c3n2)CC1
IC50 (Acetylcholinesterase): 560 nM

SMILES: Oc1cccc2ccc(/C=C/C3=CCN(Cc4ccccc4Cl)CC3)nc12
IC50 (Acetylcholinesterase): 1290 nM

SMILES: COc1cc2c(cc1OC)C(=O)C(CC1CCN(Cc3ccccc3)CC1)C2 (configuration not stated) [DONEPEZIL]
IC50 (SH-SY5Y [1]): 155000 nM
IC50 (SH-SY5Y [2]): 35000 nM
Activity (Mus musculus [3]): Active
Activity (Mus musculus [4]): Active
Activity (SH-SY5Y [5]): Active
Activity (Mus musculus [6]): Active
Activity (Mus musculus [7]): Active
IC50 (SH-SY5Y [8]): 326000 nM
IC50 (SH-SY5Y [9]): 202000 nM
Activity (Mus musculus [10]): Active
Activity (SH-SY5Y [11]): Active
LD50 at 336 h (in vivo): 28.1 mg/kg
Activity (SH-SY5Y [12]): Active

SMILES: Cc1ccc(CN2CC=C(/C=C/c3ccc4cccc(O)c4n3)CC2)cc1
IC50 (Acetylcholinesterase): 260 nM

SMILES: Oc1c(Cl)cc(Cl)c2ccc(/C=C/C3=CCN(Cc4ccc(Cl)cc4)CC3)nc12
IC50 (Acetylcholinesterase): 620 nM

SMILES: Oc1c(Cl)cc(Cl)c2ccc(/C=C/C3=CCN(Cc4cccc(C(F)(F)F)c4)CC3)nc12
IC50 (Acetylcholinesterase): 700 nM

SMILES: Oc1c(Cl)cc(Cl)c2ccc(/C=C/C3=CCN(Cc4ccc(F)cc4)CC3)nc12
IC50 (Acetylcholinesterase): 270 nM

SMILES: Cc1cccc(CN2CC=C(/C=C/c3ccc4cccc(O)c4n3)CC2)c1
IC50 (Acetylcholinesterase): 430 nM

SMILES: Oc1cccc2ccc(/C=C/C3=CCN(Cc4cccc(Br)c4)CC3)nc12
IC50 (Acetylcholinesterase): 1530 nM

SMILES: Oc1c(Cl)cc(Cl)c2ccc(/C=C/C3=CCN(Cc4ccccc4Br)CC3)nc12
IC50 (Acetylcholinesterase): 540 nM

SMILES: Oc1c(Cl)cc(Cl)c2ccc(/C=C/C3=CCN(Cc4cccc(Cl)c4)CC3)nc12
IC50 (Acetylcholinesterase): 330 nM

SMILES: Oc1cccc2ccc(/C=C/C3=CCN(Cc4ccc(C(F)(F)F)cc4)CC3)nc12
IC50 (Acetylcholinesterase): 320 nM

SMILES: Oc1c(Cl)cc(Cl)c2ccc(/C=C/C3=CCN(Cc4cccc(F)c4)CC3)nc12
IC50 (Acetylcholinesterase): 520 nM

SMILES: Cc1cccc(CN2CC=C(/C=C/c3ccc4c(Cl)cc(Cl)c(O)c4n3)CC2)c1
Activity [13]: inactive
Activity [14]: Active
Activity [15]: Active
IC50 (Acetylcholinesterase): 250 nM
Activity [16]: Active
Activity [17]: inactive

SMILES: Oc1c(Cl)cc(Cl)c2ccc(/C=C/C3=CCN(Cc4ccc(Br)cc4)CC3)nc12
IC50 (Acetylcholinesterase): 640 nM

SMILES: Oc1cccc2ccc(/C=C/C3=CCN(Cc4ccc(Cl)cc4)CC3)nc12
IC50 (Acetylcholinesterase): 3050 nM

SMILES: Cc1ccc(CN2CC=C(/C=C/c3ccc4c(Cl)cc(Cl)c(O)c4n3)CC2)cc1
IC50 (Acetylcholinesterase): 540 nM

SMILES: Oc1cccc2ccc(/C=C/C3=CCN(Cc4ccccc4F)CC3)nc12
IC50 (Acetylcholinesterase): 570 nM

SMILES: Oc1c(Cl)cc(Cl)c2ccc(/C=C/C3=CCN(Cc4ccc(C(F)(F)F)cc4)CC3)nc12
IC50 (Acetylcholinesterase): 280 nM

SMILES: Oc1cccc2ccc(/C=C/C3=CCN(Cc4cccc(C(F)(F)F)c4)CC3)nc12
IC50 (Acetylcholinesterase): 550 nM

SMILES: Oc1cccc2ccc(/C=C/C3=CCN(Cc4ccc(Br)cc4)CC3)nc12
IC50 (Acetylcholinesterase): 260 nM

SMILES: Oc1cccc2ccc(/C=C/C3=CCN(Cc4ccccc4)CC3)nc12
IC50 (Acetylcholinesterase): 1110 nM

SMILES: Oc1c(Cl)cc(Cl)c2ccc(/C=C/C3=CCN(Cc4ccccc4)CC3)nc12
IC50 (Acetylcholinesterase): 2310 nM

inhibition [18]: Active
inhibition [19]: Active
inhibition [20]: inactive
SMILES: Oc1c(I)cc(Cl)c2cccnc12

SMILES: Oc1cccc2ccc(/C=C/C3=CCN(Cc4ccccc4Br)CC3)nc12
IC50 (Acetylcholinesterase): 490 nM

SMILES: Oc1c(Cl)cc(Cl)c2ccc(/C=C/C3=CCN(Cc4ccccc4F)CC3)nc12
IC50 (Acetylcholinesterase): 290 nM

SMILES: Oc1c(Cl)cc(Cl)c2ccc(/C=C/C3=CCN(Cc4ccccc4Cl)CC3)nc12
IC50 (Acetylcholinesterase): 410 nM

SMILES: Cc1ccccc1CN1CC=C(/C=C/c2ccc3cccc(O)c3n2)CC1
IC50 (Acetylcholinesterase): 400 nM

SMILES: Oc1c(Cl)cc(Cl)c2ccc(/C=C/C3=CCN(Cc4cccc(Br)c4)CC3)nc12
IC50 (Acetylcholinesterase): 320 nM

SMILES: Oc1cccc2ccc(/C=C/C3=CCN(Cc4cccc(F)c4)CC3)nc12
IC50 (Acetylcholinesterase): 720 nM
